From patent publication US5916759A, “Cholesterol oxidase from Brevibacterium sterolicum” (Boehringer Mannheim GmbH, priority 1993, dated 1999)

What was measured:
[1] = molecular target: Cholesterol oxidase I from Brevibacterium sterolicum (Brevibacterium sterolicum, UniProt P22637); settings: read-out: KM (affinity for cholesterol); cited from earlier work
[2] = substrate: CC(C)CCC[C@@H](C)[C@H]1CC[C@H]2[C@@H]3CC=C4C[C@@H](O)CC[C@]4(C)[C@H]3CC[C@]12C; assay: KM value for cholesterol of the cholesterol oxidase according to the invention; assay type: biochemical, Brevibacterium sterolicum; settings: other: in 0.5 mol/l potassium phosphate buffer pH 7.5 at 25° C.
Experimental: This cholesterol oxidase has a molecular weight of 60 kD, an isoelectric point of ca. 5.5 (each measured in the Phast System, Pharmacia LKB) and a KM value for cholesterol of 1×10^-4 mol/l (in 0.5 mol/l potassium phosphate buffer pH 7.5 at 25° C.) and is active in a pH range of 5.5 to 8.0.
3 ml potassium phosphate buffer (0.5 mol/l, pH 7.5) containing 0.4% Thesit® (Boehringer Mannheim GmbH, Catalogue No. 006190),
0.1 ml cholesterol solution (0.4% cholesterol, 10% l-propanol, 10% Thesit®),
0.02 ml H2 O2 (0.49 mol/l in redistilled water), it is mixed, after addition of 0.02 ml catalase (from bovine liver, 20 mg protein/ml, specific activity ca. 65,000 U/mg, Boehringer Mannheim GmbH, Catalogue No. 0156744 diluted immediately to 0.075-0.15 U/ml before measurement with ice-cold potassium phosphate buffer, containing 0.4% Thesit) it is again mixed, the solution is brought to a temperature of 25° C. and subsequently the reaction is started by addition of 0.05 ml sample solution. After careful mixing the change in absorbance at 240 nm is monitored and the activity of cholesterol oxidase is determined from the linear region of the absorbance curve: [formula] in which .di-elect cons. 240=15.5 mmol^-1 ×1×cm^-1.

Sequence of Cholesterol oxidase I from Brevibacterium sterolicum (P22637 46-552): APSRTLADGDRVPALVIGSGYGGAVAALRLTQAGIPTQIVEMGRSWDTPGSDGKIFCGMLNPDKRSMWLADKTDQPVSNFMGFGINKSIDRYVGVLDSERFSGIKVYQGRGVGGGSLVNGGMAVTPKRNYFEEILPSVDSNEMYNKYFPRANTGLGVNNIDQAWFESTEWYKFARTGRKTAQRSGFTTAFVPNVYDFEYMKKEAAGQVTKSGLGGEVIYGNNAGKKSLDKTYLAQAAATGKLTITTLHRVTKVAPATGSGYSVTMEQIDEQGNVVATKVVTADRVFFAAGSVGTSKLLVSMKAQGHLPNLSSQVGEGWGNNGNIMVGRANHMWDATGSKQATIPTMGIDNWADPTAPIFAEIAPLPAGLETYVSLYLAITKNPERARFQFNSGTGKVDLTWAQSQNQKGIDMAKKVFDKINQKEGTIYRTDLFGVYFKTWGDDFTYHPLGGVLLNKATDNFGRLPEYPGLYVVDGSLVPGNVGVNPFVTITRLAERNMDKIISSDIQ

CC(C)CCC[C@@H](C)[C@H]1CC[C@H]2[C@@H]3CC=C4C[C@@H](O)CC[C@]4(C)[C@H]3CC[C@]12C [cholesterol, 5-cholesten-3-β-ol]
Km [1]: 1100 µM

B1: cholesterol oxidase from Brevibacterium sterolicum, SEQ ID NO 2 (Brevibacterium sterolicum) (protein)
chain: STGPVAPLPTPPNFPNDIALFQQAYQNWSKEIMLDATWVCSPKTPQDVVRLANWAHEHDYKIRPRGAMHGWTPLTVEKGANVEKVILADTMTHLNGITVNTGGPVATVTAGAGASIEAIVTELQKHDLGWANLPAPGVLSIGGALAVNAHGAALPAVGQTTLPGHTYGSLSNLVTELTAVVWNGTTYALETYQRNDPRITPLLTNLGRCFLTSVTMQAGPNFRQRCQSYTDIPWRELFAPKGADGRTFEKFVAESGGAEAIWYPFTEKPWMKVWTVSPTKPDSSNEVGSLGSAGSLVGKPPQAREVSGPYNYIFSDNLPEPITDMIGAINAGNPGIAPLFGPAMYEITKLGLAATNANDIWGWSKDVQFYIKATTLRLTEGGGAVVTSRANIATVINDFTEWFHERIEFYRAKGEFPLNGPVEIRCCGLDQAADVKVPSVGPPTISATRPRPDHPDWDVAIWLNVLGVPGTPGMFEFYREMEQWMRSHYNNDDATFRPEWSKGWAFGPDPYTDNDIVTNKMRATYIEGVPTTENWDTARARYNQIDPHRVFTNGFMDKLLP
Km [2]: 100 µM
